Experimental data taken from patent US12568972B2, “Pyridazinol compounds and derivatives, preparation methods, herbicidal compositions and applications thereof” (Qingdao Kingagroot Chemical Compound Co., Ltd., priority 2018, dated 2026).

Experiments:
Assay in all cases: Post-emergence test, weed control effect
Assay type in all cases: in vivo
Chenopodiaceae = conditions: after 3 weeks; for inhibition at 150 g/ha / inhibition at 300 g/ha: 504 h, fresh weight inhibition, read-out: activity level of harmful plant destruction (growth inhibition rate), Chenopodiaceae
Summary of the method: (§1)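 Score 0-10 (10 = completely dead, 1 = below 20%, 0 = no effect) from fresh-weight growth inhibition, read 3 weeks after a post-emergence spray. Greenhouse pot plants at 2-3 leaves; spray solution acetone/Tween-80/water with 80% vegetable oil methyl ester synergist at 1500 g/ha.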

Galium aparine = conditions: 504 h, after 3 weeks, fresh weight inhibition, read-out: activity level of harmful plant destruction (growth inhibition rate), Galium aparine
Summary of the method: as §1

Rorippa indica = conditions: after 3 weeks; for inhibition at 150 g/ha / inhibition at 300 g/ha: Rorippa indica, 504 h, fresh weight inhibition, read-out: activity level of harmful plant destruction (growth inhibition rate), Rorippa indica
Summary of the method: as §1

Veronica polita = conditions: after 3 weeks; for inhibition at 150 g/ha / inhibition at 300 g/ha: Veronica polita, 504 h, fresh weight inhibition, read-out: activity level of harmful plant destruction (growth inhibition rate), Veronica polita
Summary of the method: as §1

Setaria viridis = conditions: 504 h, after 3 weeks, fresh weight inhibition, read-out: activity level of harmful plant destruction (growth inhibition rate), Setaria viridis
Summary of the method: as §1

Echinochloa crus-galli = conditions: 504 h, after 3 weeks, fresh weight inhibition, read-out: activity level of harmful plant destruction (growth inhibition rate), Echinochloa crus-galli
Summary of the method: as §1

Amaranthus retroflexus = conditions: after 3 weeks
Summary of the method: as §1

Row | Structure (SMILES) | inhibition at 150 g/ha (Chenopodiaceae) [%] | weed control effect, Chenopodiaceae (activity level) (Chenopodiaceae; Dose 3000 g/ha) | inhibition at 150 g/ha (Galium aparine) [%] | weed control effect, Rorippa indica (activity level) (Rorippa indica; Dose 3000 g/ha) | inhibition at 150 g/ha (Rorippa indica) [%] | weed control effect, Veronica polita (activity level) (Veronica polita; Dose 3000 g/ha) | inhibition at 150 g/ha (Veronica polita) [%] | inhibition at 150 g/ha (Setaria viridis) [%] | inhibition at 150 g/ha (Echinochloa crus-galli) [%] | weed control effect, Amaranthus retroflexus (activity level) (Amaranthus retroflexus; Dose 3000 g/ha) | inhibition at 300 g/ha (Chenopodiaceae) [%] | inhibition at 300 g/ha (Galium aparine) [%] | inhibition at 300 g/ha (Rorippa indica) [%] | inhibition at 300 g/ha (Veronica polita) [%] | inhibition at 300 g/ha (Setaria viridis) [%] | inhibition at 300 g/ha (Echinochloa crus-galli) [%] | weed control effect (activity level), Chenopodiaceae (Chenopodiaceae; Dose 3000 g/ha) | weed control effect (activity level), Rorippa indica (Rorippa indica; Dose 3000 g/ha) | weed control effect (activity level), Veronica polita (Veronica polita; Dose 3000 g/ha) | weed control effect (activity level), Amaranthus retroflexus (Amaranthus retroflexus; Dose 3000 g/ha) | also measured
1 | N#Cc1ccc(-c2nnc(C(F)(F)F)cc2OC(=O)c2ccc(Cl)cc2)cc1 [Compound 1-82] | 100 | 10 | 70 to 80 | 10 | 100 | 10 | 80 to 90 | 100 | 70 to 80 | 10 |  |  |  |  |  |  |  |  |  |  | 
2 | Oc1cc(C(F)(F)F)nnc1-c1cccnc1 [Compound 202] |  |  |  |  |  |  |  |  |  |  | 100 | 100 | 100 | 80 to 90 | 100 | 70 to 80 |  |  |  |  | weed control effect (activity level), Chenopodiaceae (Chenopodiaceae; dose 2000 g/ha): 10; weed control effect (activity level), Rorippa indica (Rorippa indica; dose 2000 g/ha): 10; weed control effect (activity level), Veronica polita (Veronica polita; dose 2000 g/ha): 10; weed control effect (activity level), Amaranthus retroflexus (Amaranthus retroflexus; dose 2000 g/ha): 10
3 | Oc1cc(C(F)(F)F)nnc1-c1ccc(F)nc1F [Compound 220] |  |  |  |  |  |  |  |  |  |  | 100 | 100 | 100 | 100 | 100 | 100 |  |  |  |  | weed control effect (activity level), Chenopodiaceae (Chenopodiaceae; dose 2000 g/ha): 10; weed control effect (activity level), Rorippa indica (Rorippa indica; dose 2000 g/ha): 10; weed control effect (activity level), Veronica polita (Veronica polita; dose 2000 g/ha): 10; weed control effect (activity level), Amaranthus retroflexus (Amaranthus retroflexus; dose 2000 g/ha): 10
4 | Cc1cc(-c2nnc(C(F)(F)F)cc2O)n(C)n1 [Compound 779] |  |  |  |  |  |  |  |  |  |  | 100 | 100 | 100 | 100 | 100 | 100 | 10 | 10 | 10 | 10 | 
5 | Oc1cc(C(F)(F)F)nnc1-c1ccnc(F)c1 [Compound 206] |  |  |  |  |  |  |  |  |  |  | 100 | 100 | 100 | 100 | 100 | 100 |  |  |  |  | weed control effect (activity level), Chenopodiaceae (Chenopodiaceae; dose 2000 g/ha): 10; weed control effect (activity level), Rorippa indica (Rorippa indica; dose 2000 g/ha): 10; weed control effect (activity level), Veronica polita (Veronica polita; dose 2000 g/ha): 10; weed control effect (activity level), Amaranthus retroflexus (Amaranthus retroflexus; dose 2000 g/ha): 10
6 | Oc1cc(C(F)(F)F)nnc1-c1ccc(F)c(Cl)c1 [Compound 740] |  |  |  |  |  |  |  |  |  |  | 100 | 100 | 100 | 100 | 100 | 100 | 10 | 10 | 10 | 10 | 
7 | N#Cc1ccccc1C(=O)Oc1cc(C(F)(F)F)nnc1-c1ccc(F)c(F)c1 [Compound 1-86] | 100 | 10 | 100 | 10 | 100 | 10 | 100 | 100 | 100 | 10 |  |  |  |  |  |  |  |  |  |  | 
8 | Oc1cc(C(F)(F)F)nnc1-c1cnc(F)c(Cl)c1 [Compound 1000] |  |  |  |  |  |  |  |  |  |  | 100 | 100 | 100 | 100 | 100 | 100 | 10 | 10 | 10 | 10 | 
9 | CCCCCCCCOC(=O)Oc1cc(C(F)(F)F)nnc1-c1ccc(F)cc1 [Compound 1-39] | 100 | 10 | 100 | 10 | 100 | 10 | 100 | 100 | 100 | 10 |  |  |  |  |  |  |  |  |  |  | 
10 | Oc1cc(C(F)(F)F)nnc1-c1ccc(Cl)cc1 [Compound 739] |  |  |  |  |  |  |  |  |  |  | 100 | 80 to 90 | 100 | 100 | 100 | 100 | 10 | 10 | 10 | 10 | 
11 | Oc1cc(C(F)(F)F)nnc1-c1cccnc1F [Compound 733] |  |  |  |  |  |  |  |  |  |  | 100 | 100 | 100 | 100 | 100 | 100 |  |  |  |  | weed control effect (activity level), Chenopodiaceae (Chenopodiaceae; dose 1000 g/ha): 10; weed control effect (activity level), Rorippa indica (Rorippa indica; dose 1000 g/ha): 10; weed control effect (activity level), Veronica polita (Veronica polita; dose 1000 g/ha): 10; weed control effect (activity level), Amaranthus retroflexus (Amaranthus retroflexus; dose 1000 g/ha): 10
12 | CCCCCCCCSC(=O)Oc1cc(C(F)(F)F)nnc1-c1ccc(F)c(F)c1 [Compound 1-55] | 100 | 10 | 100 | 10 | 100 | 10 | 100 | 100 | 100 | 10 |  |  |  |  |  |  |  |  |  |  | 
13 | Oc1cc(C(F)(F)F)nnc1-c1cc(F)cc(F)c1 [Compound 35] |  |  |  |  |  |  |  |  |  |  | 100 | 90 to 100 | 100 | 100 | 100 | 100 |  |  |  |  | weed control effect (activity level), Chenopodiaceae (Chenopodiaceae; dose 1000 g/ha): 10; weed control effect (activity level), Rorippa indica (Rorippa indica; dose 1000 g/ha): 10; weed control effect (activity level), Veronica polita (Veronica polita; dose 1000 g/ha): 10; weed control effect (activity level), Amaranthus retroflexus (Amaranthus retroflexus; dose 1000 g/ha): 10
